# Source: patent US7390826B2, “Inhibitors of animal cell motility and growth” (The Board of Trustees of The University of Illinois, priority 2002, dated 2008)
# Columns and labels:
# [1] = solubility in carrier solvent; type: physicochemical
# Method: Experiments were carried out in 12-well flat-bottom polystyrene plates with 4-8 embryos per well in 1.0 ml of one-tenth strength MBS with 50 μg/ml gentamycin at 19° C. Staging of embryos was done according to the classification of Nieuwkoop and Faber. Embryos at stage 8.5-9 (late blastula stages prior to the debut of gastrulation at stage 10) or at the 2-cell stage (after the first cleavage division, Nieuwkoop and Faber stage 2), as indicated in the figures, were treated with a test compound or dimethylsulfoxide (DMSO) carrier solvent and maintained at 19° C. […] DMSO alone at this concentration had no detectable effect on the embryos. […] As with 0.1% DMSO, this concentration of DMF had no effect on development of the frog embryos. Each experiment was conducted in triplicate on at least three separate occasions for a total of 9 or more wells per treatment. Embryos were observed using a stereomicroscope and scored for defects or delayed development at set times (0, 3, 6, 9, 12, 24, 48, 72, and 96 hours) following treatment.
# Xenopus laevis embryos = experiment: frog embryo morphogenesis assay (scoring of developmental defects); type: in vivo; conditions: Xenopus laevis; 72 hr after treatment; dose-response, 5 concentrations; read-out: EC50 with respect to the defective phenotype at 72 hr following treatment
# Source text: In order to identify compounds that specifically perturb morphogenesis in the frog embryo, a suitable method for scoring embryos by characteristic defects was developed. A useful starting point was the “dorso-anterior index” (DAI). The DAI originally was constructed by adding new morphological characteristics to the older “index of axis deficiency” (S. R. Scharf et al., Dev. Biol., 99, 75-87 (1983)). The DAI is a scale of dorsoanterior development wherein embryos are assigned a score based on degree of dorsoanterior phenotype (K. R. Kao et al., Dev. Biol., 127, 64-77 (1988)). The scale encompasses a score of 0 (for the most axis-deficient or ventralized embryos) to 10 (for embryos with the most enhanced dorsoanterior structures), with a score of 5 signifying a normal embryo.
# Because the DAI focuses only on dorsoanterior phenotypes, other categories were added to describe possible defects more comprehensively, with an emphasis on characteristics that are easily and unambiguously recognized in intact embryos, and that are diagnostic of possible effects on morphogenesis during gastrulation and neurulation. The most useful and readily scored categories that covered the most frequent deficiencies were: reduced anterior structures and microcephaly, delayed appearance or absence of eye pigmentation, overall shortness along the anteroposterior axis, bent axis, bent tail only, reduced posterior structures/tail, malformed or reduced fins, delayed or failed neural tube closure (neural fold fusion), abnormal pigmentation pattern, ventral swelling (edema), and delayed or abnormal visceral organogenesis and yolk resorption. In addition, blastopore closure, an earlier process that marks the completion of gastrulation, was observed.
# In these tests, test compounds were added individually to wells each containing 4-8 embryos in 12-well plates. Embryos at stage 8.5-9, according to the classification of Nieuwkoop and Faber (P. I. Nieuwkoop et al., Normal Table of Xenopus laevis (Daudin). Amsterdam: North-Holland Publ.) (1967)), were used because these are late blastula stages before gastrulation begins at stage 10, which allowed focusing primarily on compounds that affect morphogenetic events in gastrulation and neurulation. These embryos, therefore, have undergone a midblastula transition at stage 8 (cleavage division 12) when zygotic transcription begins (J. Newport et al., Cell, 30, 675-686 (1982); J. Newport et al., Cell, 30, 687-696 (1982)) but have not yet started the morphogenetic movements of gastrulation.
# Standard procedures were used in the care of animals, gamete preparation, fertilization of oocytes, and culture of embryos (B. K. Kay et al., Methods in Cell Biology, Volumn 36 (San Diego: Academic Press, Inc.) (1991)). In order to stimulate ovulation, female frogs were injected with 500 units of human chorionic gonadotropin (HCG). Eggs were squeezed from female frogs 12 hours later. Testes were removed from euthanized male frogs that had been primed with 50 units of HCG 4-6 hours earlier. The testes were stored at 4° C. in single strength Marc's Modified Ringer's solution with 50 μg/ml gentamycin and used for no more than 10 days. Small pieces of testes were macerated and spread over eggs for in vitro fertilization in Petri dishes. Fertilized eggs were placed in one-tenth strength Modified Barth's Saline (MBS) with 50 μg/ml gentamycin at constant temperature (19° C.) in a temperature-controlled incubator and development allowed to proceed under these conditions. Embryos were dejellied by briefly swirling them in a solution of 2% (w/v) L-cysteine, pH 8.0. The embryos then were rinsed extensively with one-tenth strength MBS to wash out the cysteine. Experiments were started within an hour of dejellying the embryos.
# Experiments were carried out in 12-well flat-bottom polystyrene plates with 4-8 embryos per well in 1.0 ml of one-tenth strength MBS with 50 μg/ml gentamycin at 19° C. […]
SMILES,solubility in DMF versus DMSO [1],EC50 (Xenopus laevis embryos) [µM]
O=C(/C=C/c1c(F)c(F)c(F)c(F)c1F)N1C(=O)OC[C@@H]1Cc1ccccc1 [Compound 22],more soluble in DMF,
O=C(/C=C/c1ccc(O)cc1)N1C(=O)OC[C@@H]1Cc1ccccc1 [Compound 41],more soluble in DMF,27.1
